Source: ChEMBL document CHEMBL1909046, “DrugMatrix in vitro pharmacology data”

What was measured:
[1] = DRUGMATRIX: Glutamate, NMDA, Agonism radioligand binding (ligand: [3H] CGP-39653); assay type: cell membranes, Rattus norvegicus, Wistar, Cerebral cortex, Membrane; details: Not Active = under 50% inhibition at 10 µM
Leukotriene C4 synthase = target: T1, Leukotriene C4 synthase (Cavia porcellus, UniProt A6XA80); test: biochemical; assay type: tissue-based, Lung;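 also: enzyme inhibition assay of leukotriene C4 synthase, using LTA4 as the substrate; in other assays of this panel Not Active means under 50% inhibition at 10 µM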
T1 sequence (A6XA80 whole entry): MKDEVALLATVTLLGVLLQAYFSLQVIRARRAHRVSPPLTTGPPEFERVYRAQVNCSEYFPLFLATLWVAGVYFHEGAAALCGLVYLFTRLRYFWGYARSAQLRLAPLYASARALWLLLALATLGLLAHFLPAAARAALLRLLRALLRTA

[2] = target: T2, Nitric oxide synthase, inducible (Mus musculus, UniProt P29477); set-up: species or system Escherichia coli;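 also: inhibition of iNOS enzyme activity measured with L-arginine as substrate; in other assays of this panel Not Active means under 50% inhibition at 10 µM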
T2 sequence (P29477 whole entry): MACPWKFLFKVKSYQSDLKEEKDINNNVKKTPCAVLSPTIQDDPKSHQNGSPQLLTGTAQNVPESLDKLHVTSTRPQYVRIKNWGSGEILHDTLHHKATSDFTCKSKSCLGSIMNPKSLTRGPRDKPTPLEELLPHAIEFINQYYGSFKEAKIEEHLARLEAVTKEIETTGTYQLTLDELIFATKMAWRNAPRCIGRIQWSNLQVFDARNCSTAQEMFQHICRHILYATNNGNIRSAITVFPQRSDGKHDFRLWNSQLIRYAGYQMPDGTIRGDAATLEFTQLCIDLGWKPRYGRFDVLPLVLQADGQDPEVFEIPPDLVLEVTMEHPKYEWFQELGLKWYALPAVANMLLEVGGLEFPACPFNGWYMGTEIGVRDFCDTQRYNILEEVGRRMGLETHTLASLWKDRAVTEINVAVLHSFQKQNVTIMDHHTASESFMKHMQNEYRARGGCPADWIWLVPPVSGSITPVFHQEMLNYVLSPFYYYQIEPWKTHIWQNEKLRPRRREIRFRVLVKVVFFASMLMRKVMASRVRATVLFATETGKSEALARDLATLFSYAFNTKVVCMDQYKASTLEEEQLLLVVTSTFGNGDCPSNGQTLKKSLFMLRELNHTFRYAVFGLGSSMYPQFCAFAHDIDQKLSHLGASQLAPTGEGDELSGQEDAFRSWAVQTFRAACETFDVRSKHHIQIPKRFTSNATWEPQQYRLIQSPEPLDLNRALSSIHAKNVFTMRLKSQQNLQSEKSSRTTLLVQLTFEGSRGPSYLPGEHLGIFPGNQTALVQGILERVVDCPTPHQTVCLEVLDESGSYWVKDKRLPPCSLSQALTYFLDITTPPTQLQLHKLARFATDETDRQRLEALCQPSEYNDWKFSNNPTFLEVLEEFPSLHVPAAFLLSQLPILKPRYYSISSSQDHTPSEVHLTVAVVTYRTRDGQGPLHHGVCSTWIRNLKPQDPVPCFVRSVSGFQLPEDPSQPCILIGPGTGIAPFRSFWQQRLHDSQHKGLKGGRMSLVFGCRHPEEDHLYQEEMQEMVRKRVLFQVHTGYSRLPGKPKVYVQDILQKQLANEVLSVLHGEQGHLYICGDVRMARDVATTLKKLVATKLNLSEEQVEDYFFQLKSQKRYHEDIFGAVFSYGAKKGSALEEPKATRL

[3] = target: Epidermal growth factor receptor (Homo sapiens, UniProt P00533); test: DRUGMATRIX: Protein Tyrosine Kinase, EGF Receptor enzyme inhibition (substrate: Poly(Glu:Tyr)); assay type: cell-based, Insect cells; details: Not Active = under 50% inhibition at 10 µM
[4] = target: Mitogen-activated protein kinase 14 (Homo sapiens, UniProt Q16539); set-up: species or system Escherichia coli;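 also: inhibition of p38alpha enzyme activity in a biochemical kinase assay, with myelin basic protein serving as substrate; in other assays of this panel Not Active means under 50% inhibition at 10 µM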
[5] = target: Prostaglandin G/H synthase 1 (Homo sapiens, UniProt P23219); test: biochemical; assay type: tissue-based, Platelet; details: platelet;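 also: inhibition of COX-1 enzyme activity, with arachidonic acid supplied as substrate; in other assays of this panel Not Active means under 50% inhibition at 10 µM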
[6] = DRUGMATRIX: Platelet-Derived Growth Factor (PDGF) radioligand binding (ligand: [125I] PDGF); assay type: cell-based; details: nih3t3; Not Active = under 50% inhibition at 10 µM
[7] = DRUGMATRIX: Nicotinic Acetylcholine radioligand binding (ligand: [125I] Epibatidine); assay type: cell membranes, Membrane; details: imr-32; Not Active = under 50% inhibition at 10 µM

Sequence of Mitogen-activated protein kinase 14 (Q16539 whole entry): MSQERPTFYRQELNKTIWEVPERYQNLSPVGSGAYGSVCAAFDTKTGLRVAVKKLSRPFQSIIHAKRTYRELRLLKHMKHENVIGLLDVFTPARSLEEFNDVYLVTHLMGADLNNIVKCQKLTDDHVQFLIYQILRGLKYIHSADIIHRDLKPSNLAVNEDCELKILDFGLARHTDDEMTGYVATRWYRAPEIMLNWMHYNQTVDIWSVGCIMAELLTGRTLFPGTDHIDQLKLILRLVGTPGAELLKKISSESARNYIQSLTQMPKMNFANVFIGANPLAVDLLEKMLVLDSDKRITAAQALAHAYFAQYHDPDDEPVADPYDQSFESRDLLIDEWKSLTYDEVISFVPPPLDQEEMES
Sequence of Prostaglandin G/H synthase 1 (P23219 whole entry): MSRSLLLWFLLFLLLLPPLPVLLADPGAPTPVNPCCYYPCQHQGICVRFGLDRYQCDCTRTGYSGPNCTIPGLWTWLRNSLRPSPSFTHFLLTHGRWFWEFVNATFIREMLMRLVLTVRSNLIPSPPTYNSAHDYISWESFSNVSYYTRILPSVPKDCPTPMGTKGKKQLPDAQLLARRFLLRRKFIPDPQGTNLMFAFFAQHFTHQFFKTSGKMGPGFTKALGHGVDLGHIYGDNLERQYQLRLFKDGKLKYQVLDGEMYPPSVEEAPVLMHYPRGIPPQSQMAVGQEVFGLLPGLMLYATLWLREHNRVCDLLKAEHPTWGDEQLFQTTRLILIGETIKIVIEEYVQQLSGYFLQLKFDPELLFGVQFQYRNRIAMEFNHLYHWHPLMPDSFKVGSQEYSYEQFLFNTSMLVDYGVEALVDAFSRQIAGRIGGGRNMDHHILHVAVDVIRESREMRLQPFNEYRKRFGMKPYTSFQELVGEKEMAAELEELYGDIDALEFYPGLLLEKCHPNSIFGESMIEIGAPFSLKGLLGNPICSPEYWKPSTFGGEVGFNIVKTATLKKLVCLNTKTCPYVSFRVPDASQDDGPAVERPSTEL
Sequence of Epidermal growth factor receptor (P00533 whole entry): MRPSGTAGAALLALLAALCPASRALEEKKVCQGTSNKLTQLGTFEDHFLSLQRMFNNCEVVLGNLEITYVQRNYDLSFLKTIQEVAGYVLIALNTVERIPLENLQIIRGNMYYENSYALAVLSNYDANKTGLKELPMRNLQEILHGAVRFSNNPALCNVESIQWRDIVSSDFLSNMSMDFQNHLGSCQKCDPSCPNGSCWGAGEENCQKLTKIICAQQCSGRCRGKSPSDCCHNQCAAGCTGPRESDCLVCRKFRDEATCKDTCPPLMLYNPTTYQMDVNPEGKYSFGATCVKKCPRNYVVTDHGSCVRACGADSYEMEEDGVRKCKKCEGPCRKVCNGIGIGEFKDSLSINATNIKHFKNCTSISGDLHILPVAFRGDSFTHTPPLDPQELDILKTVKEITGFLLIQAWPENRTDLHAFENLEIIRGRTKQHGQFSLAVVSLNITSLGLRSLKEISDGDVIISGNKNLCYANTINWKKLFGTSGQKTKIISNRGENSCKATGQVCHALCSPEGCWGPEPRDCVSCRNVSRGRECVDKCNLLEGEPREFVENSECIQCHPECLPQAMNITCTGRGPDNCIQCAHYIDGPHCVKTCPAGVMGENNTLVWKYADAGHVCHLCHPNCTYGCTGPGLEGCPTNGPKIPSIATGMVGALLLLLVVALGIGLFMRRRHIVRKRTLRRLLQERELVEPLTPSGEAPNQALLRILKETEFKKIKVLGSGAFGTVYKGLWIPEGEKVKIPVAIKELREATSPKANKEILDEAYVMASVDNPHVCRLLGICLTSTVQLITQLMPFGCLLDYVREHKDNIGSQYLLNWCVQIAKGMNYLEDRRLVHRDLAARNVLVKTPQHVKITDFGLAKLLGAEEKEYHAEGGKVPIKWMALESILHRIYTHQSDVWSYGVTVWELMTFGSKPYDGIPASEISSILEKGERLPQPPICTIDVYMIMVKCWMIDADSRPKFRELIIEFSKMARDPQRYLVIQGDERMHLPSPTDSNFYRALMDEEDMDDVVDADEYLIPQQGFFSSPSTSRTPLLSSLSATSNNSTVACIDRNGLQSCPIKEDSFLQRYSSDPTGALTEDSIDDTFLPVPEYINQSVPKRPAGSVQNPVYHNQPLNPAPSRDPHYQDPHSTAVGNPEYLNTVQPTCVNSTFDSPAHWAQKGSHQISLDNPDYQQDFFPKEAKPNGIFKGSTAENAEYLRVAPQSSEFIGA

SMILES	IC50 [1]	Ki [1]	IC50 (Leukotriene C4 synthase)	IC50 [2]	IC50 ([3]; insect cells)	IC50 [4]	IC50 [5]	IC50 [6]	Ki [6]	IC50 [7]	Ki [7]	IC50 ([3]; read-out: IC50) [µM]
CCN(CC)CCNC(=O)c1cc(Cl)c(N)cc1OC [METOCLOPRAMIDE]	Not Active	Not Active	Not Active	Not Active	Not Active	Not Active	Not Active	Not Active	Not Active	Not Active	Not Active	–
Cc1nnc(NS(=O)(=O)c2ccc(N)cc2)s1 [SULFAMETHIZOLE]	Not Active	Not Active	Not Active	Not Active	Not Active	Not Active	Not Active	Not Active	Not Active	Not Active	Not Active	–
CCC(C)(C)C(=O)O[C@H]1C[C@@H](C)C=C2C=C[C@H](C)[C@H](CC[C@@H]3C[C@@H](O)CC(=O)O3)[C@H]21 [SIMVASTATIN]	Not Active	Not Active	Not Active	Not Active	Not Active	Not Active	Not Active	Not Active	Not Active	Not Active	Not Active	–
CN1C(=O)OC(C)(C)C1=O [TRIMETHADIONE]	Not Active	Not Active	Not Active	Not Active	Not Active	Not Active	Not Active	Not Active	Not Active	Not Active	Not Active	–
CC[C@H](C)[C@@H](CO[C@@H](Cc1ccccc1)C(=O)N[C@@H](CCS(C)(=O)=O)C(=O)OC(C)C)NC[C@@H](N)CS	Not Active	Not Active	Not Active	Not Active	–	Not Active	Not Active	Not Active	Not Active	Not Active	Not Active	3.22
OC[C@@H](O)[C@@H](O)[C@H](O)[C@H](O)CO [MANNITOL]	Not Active	Not Active	Not Active	Not Active	Not Active	Not Active	Not Active	Not Active	Not Active	Not Active	Not Active	–
Cc1cn([C@H]2C=C[C@@H](CO)O2)c(=O)[nH]c1=O [STAVUDINE]	Not Active	Not Active	Not Active	Not Active	Not Active	Not Active	Not Active	Not Active	Not Active	Not Active	Not Active	–
C[N+]1(C)[C@@H]2C[C@@H](OC(=O)[C@H](CO)c3ccccc3)C[C@H]1[C@@H]1O[C@@H]12.[Br-] [METHSCOPOLAMINE BROMIDE]	Not Active	Not Active	Not Active	Not Active	Not Active	Not Active	Not Active	Not Active	Not Active	Not Active	Not Active	–
CC1=C(/C=C/C(C)=C/C=C/C(C)=C/C(=O)O)C(C)(C)CCC1 [TRETINOIN]	Not Active	Not Active	Not Active	Not Active	Not Active	Not Active	Not Active	Not Active	Not Active	Not Active	Not Active	–
